Structures can show the parent of a compound that is named as a salt. Activity calls are given as the source filed them.
Key:
[1] = molecular target: T1, RNA-binding protein pos-1 (Caenorhabditis elegans, UniProt G5EF15); assay: disruptors of C. elegans POS-1 RNA interaction – biochemical, fluorescence polarization, dose response (AID 1964);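 note: purified POS-1 fused to maltose binding protein made in E. coli; potency of compounds blocking POS-1 binding to fluorescent RNA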
T1 sequence (G5EF15 whole entry): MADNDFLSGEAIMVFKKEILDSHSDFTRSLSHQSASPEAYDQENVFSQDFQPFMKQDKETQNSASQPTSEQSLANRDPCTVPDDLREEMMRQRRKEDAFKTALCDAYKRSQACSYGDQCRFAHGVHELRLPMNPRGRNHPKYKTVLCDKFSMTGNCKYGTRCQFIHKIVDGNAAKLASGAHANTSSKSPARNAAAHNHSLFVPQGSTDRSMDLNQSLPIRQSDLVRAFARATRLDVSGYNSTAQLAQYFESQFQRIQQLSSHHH

[2] = molecular target: T2, Zinc finger protein mex-5 (Caenorhabditis elegans, UniProt Q9XUB2); assay: potency of MEX-5 RNA-binding blockers – biochemical, C. elegans, fluorescence polarization, dose response (AID 1960)
T2 sequence (Q9XUB2 whole entry): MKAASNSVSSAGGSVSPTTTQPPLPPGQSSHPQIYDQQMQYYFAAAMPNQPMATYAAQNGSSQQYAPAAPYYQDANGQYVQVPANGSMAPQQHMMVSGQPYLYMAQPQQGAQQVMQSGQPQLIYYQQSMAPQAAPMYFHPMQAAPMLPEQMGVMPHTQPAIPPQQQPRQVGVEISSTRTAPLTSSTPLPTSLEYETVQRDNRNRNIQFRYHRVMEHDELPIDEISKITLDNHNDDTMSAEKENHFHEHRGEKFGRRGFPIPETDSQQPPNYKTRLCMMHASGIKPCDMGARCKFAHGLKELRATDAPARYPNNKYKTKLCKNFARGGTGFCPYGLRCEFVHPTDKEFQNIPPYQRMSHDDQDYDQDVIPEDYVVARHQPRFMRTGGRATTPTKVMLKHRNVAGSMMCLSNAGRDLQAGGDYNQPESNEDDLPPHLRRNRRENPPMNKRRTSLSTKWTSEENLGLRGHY

Large T antigen = Large T antigen (Simian virus 40, UniProt P03070); format: functional, Betapolyomavirus macacae;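 note: Confirmatory-stage PubChem screen for compounds that inhibit SV40 T antigen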
Large T antigen, sequence (P03070 whole entry): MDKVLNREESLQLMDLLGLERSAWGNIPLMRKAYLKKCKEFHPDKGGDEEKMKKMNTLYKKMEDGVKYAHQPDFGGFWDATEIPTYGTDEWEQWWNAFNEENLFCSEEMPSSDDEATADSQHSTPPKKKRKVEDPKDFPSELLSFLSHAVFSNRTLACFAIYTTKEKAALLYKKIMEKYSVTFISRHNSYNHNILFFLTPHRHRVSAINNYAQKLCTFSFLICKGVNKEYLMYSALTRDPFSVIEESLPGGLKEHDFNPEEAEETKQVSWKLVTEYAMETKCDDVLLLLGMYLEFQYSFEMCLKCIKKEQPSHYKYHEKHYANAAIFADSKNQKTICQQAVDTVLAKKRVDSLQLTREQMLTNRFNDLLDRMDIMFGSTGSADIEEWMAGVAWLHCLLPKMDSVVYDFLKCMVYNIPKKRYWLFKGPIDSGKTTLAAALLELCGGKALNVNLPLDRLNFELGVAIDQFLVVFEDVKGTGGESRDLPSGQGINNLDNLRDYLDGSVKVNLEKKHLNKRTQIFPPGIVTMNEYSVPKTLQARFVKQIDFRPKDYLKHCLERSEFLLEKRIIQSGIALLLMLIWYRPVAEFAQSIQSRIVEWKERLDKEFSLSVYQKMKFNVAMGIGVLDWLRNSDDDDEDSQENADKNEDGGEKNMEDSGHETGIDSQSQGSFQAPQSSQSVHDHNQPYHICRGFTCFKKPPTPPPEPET

Protein RecA = molecular target: T3, Protein RecA (Mycobacterium tuberculosis, UniProt P9WHJ3); assay: Fluorescence Cell-Free Homogeneous Dose Retest to Identify Inhibitors of RecA-Intein Splicing Activity. [Related pubchem assays (depositor defined):AID2097, AID2223, AID489010, AID492950]; format: functional
T3 sequence (P9WHJ3 whole entry): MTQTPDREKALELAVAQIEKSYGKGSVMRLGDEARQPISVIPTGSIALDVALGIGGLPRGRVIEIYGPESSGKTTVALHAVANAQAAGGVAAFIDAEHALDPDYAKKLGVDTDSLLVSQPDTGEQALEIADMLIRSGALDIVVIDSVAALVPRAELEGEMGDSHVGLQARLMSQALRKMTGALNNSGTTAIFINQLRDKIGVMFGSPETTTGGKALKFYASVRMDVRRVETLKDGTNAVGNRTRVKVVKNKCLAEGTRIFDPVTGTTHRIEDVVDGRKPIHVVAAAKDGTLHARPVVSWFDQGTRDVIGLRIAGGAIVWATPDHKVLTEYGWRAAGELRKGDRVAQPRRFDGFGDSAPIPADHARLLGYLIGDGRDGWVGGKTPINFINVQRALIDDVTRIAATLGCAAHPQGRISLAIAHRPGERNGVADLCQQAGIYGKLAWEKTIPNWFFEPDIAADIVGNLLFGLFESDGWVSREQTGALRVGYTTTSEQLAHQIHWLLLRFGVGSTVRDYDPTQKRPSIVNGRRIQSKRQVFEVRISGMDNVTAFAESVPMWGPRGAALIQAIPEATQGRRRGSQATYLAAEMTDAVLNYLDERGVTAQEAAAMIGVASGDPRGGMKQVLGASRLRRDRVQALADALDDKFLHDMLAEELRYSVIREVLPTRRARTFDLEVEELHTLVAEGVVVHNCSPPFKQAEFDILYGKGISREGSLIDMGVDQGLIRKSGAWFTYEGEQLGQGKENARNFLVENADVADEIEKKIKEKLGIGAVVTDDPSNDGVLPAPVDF

[3] = molecular target: T4, Replicative DNA helicase DnaB (Mycobacterium tuberculosis, UniProt P9WMR3); assay: DnaB intein splicing inhibitors, dose response, biochemical, cell-free fluorescence (AID 449749); format: functional
T4 sequence (P9WMR3 whole entry): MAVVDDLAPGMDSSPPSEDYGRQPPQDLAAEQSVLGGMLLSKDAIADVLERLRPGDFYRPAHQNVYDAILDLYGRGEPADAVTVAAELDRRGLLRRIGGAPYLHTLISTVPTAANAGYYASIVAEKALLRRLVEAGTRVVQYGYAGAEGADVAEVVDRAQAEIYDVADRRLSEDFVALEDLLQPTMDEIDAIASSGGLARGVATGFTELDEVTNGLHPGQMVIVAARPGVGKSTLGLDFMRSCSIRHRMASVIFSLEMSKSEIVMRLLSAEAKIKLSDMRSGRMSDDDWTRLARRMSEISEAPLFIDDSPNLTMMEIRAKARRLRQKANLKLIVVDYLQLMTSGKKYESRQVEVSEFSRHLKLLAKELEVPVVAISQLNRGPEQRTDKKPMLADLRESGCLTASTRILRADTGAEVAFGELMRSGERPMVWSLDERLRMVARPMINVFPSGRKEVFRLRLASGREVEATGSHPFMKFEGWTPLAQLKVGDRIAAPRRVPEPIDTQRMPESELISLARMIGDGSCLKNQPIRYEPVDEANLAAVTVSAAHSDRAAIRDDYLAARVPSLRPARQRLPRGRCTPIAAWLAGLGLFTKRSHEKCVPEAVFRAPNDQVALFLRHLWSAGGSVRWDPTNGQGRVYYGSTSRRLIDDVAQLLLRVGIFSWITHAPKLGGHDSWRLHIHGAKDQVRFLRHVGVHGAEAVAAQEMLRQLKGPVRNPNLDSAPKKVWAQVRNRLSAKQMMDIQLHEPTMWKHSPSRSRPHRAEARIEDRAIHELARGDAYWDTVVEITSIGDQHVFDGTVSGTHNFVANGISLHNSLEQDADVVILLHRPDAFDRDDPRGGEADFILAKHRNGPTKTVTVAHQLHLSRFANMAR

[4] = reduction of Shn3 3'UTR-driven luciferase in osteoblasts – cell-based, Clone20 osteoblasts, firefly luciferase, cherry-picked, dose response (AID 624132); format: functional;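 note: firefly luciferase luminescence from reporter carrying the Shn3 3'UTR in osteoblasts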
[5] = non-specific 3'UTR reporter inhibition in Clone20-Shn3RL – cell-based, Renilla luciferase, cherry-picked, counter-screen for Shn3 inhibitor project, dose response (AID 624133); format: functional
[6] = loss of viability in HepG2 cells – cell-based, CellTiter-Glo, cherry-picked, cytotoxicity control for Shn3 inhibitor project, dose response (AID 624134); format: functional
INS1 = assay: INS-1E survival protection against cytokine death – cell-based, luminescence, retest, dose response (AID 449756); format: functional; settings: Rattus norvegicus;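 note: cell death triggered by IL-1 beta plus TNF-alpha plus IFN-gamma mixture; protective hits raise ATP signal compared with cytokine alone wells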
[7] = Luminescence Cell-Based Dose Retest to Confirm Inhibitors of Cancer Stem Cells. [Related pubchem assays (depositor defined):AID2717, AID2721]; format: functional, Homo sapiens; settings: Homo sapiens
cells [8] = format: functional, cell-based
cells [9] = format: functional, cell-based; remark: listed apart in the source
[10] = viability of uninfected HEp-2 cells – cell-based, HTS, cytotoxicity control for RSV inhibitor project, dose response (AID 2410); format: functional; settings: human respiratory syncytial virus
[11] = molecular target: FAD-linked sulfhydryl oxidase ALR (Homo sapiens, UniProt P55789); assay: ALR-catalysed DTT oxidation blockers – biochemical, H2O2 detection, luminescence, cherry-pick, dose response (AID 493248)
FAD-linked sulfhydryl oxidase ALR, sequence (P55789 whole entry): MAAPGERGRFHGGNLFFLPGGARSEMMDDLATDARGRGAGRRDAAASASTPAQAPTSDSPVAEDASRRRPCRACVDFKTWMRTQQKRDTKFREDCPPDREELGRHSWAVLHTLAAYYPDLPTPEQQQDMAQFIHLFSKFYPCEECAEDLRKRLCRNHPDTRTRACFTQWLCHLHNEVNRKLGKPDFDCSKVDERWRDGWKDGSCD

P388/ADR = assay: cells; format: functional; settings: Mus musculus
[12] = test system: Streptococcus sp. 'group A'; assay: Streptococcus pyogenes SK(-)GAS viability under kanamycin – luminescence, BacTiterGlo, confirmation, counter-screen for streptokinase expression inhibitor project, dose response (AID 1900); format: functional, organism-based; settings: Streptococcus sp. 'group A'
Streptococcus = assay: GAS UMAA2166 growth inhibition – luminescence, BacTiterGlo, counter-screen for streptokinase expression inhibitor project, dose response (AID 1915); format: functional, organism-based; settings: Streptococcus;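 note: potency for reduction of bacterial viability or growth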
Streptokinase A = molecular target: T5, Streptokinase A (Streptococcus pyogenes serotype M1, UniProt P10520); assay: viability-normalized secreted streptokinase activity reduction – plasminogen activation absorbance, OD405, dose response (AID 1914); format: functional, Streptococcus pyogenes M1 GAS;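 note: secreted streptokinase activity via plasminogen activation per viability signal from cell pellet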
T5 sequence (P10520 whole entry): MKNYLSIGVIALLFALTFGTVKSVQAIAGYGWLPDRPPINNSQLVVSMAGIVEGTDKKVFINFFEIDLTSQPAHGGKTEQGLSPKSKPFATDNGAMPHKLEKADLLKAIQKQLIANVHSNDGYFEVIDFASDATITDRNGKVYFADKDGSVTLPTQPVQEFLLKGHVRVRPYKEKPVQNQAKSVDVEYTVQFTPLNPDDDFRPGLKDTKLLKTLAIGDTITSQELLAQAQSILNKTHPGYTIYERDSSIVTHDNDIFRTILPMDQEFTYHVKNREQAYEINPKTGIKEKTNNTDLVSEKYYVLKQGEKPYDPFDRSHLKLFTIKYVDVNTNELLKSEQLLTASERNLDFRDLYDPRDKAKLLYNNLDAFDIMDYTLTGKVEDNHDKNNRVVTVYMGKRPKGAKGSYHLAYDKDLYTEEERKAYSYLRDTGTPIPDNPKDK

COc1ccccc1Nc1nc2nonc2nc1N1CCCCC1C (centres undefined)
EC50 [1]: 95.5 µM (active)
EC50 [2]: > 300 µM (not active)

COc1cc(/C=C/C(=O)OCC(=O)N2CC(=O)Nc3ccccc32)ccc1O
IC50 (Large T antigen): 12.6 µM (active)

O=C1CSC(=S)N1N1C(=O)c2cccc([N+](=O)[O-])c2C1=O
EC50 [1]: 24.9 µM (active)
EC50 [2]: 24.8 µM (active)

C=CSc1sc(Cl)c(N2CCOCC2)c1[N+](=O)[O-]
EC50 (Protein RecA): 54.6 µM (active)
AC50 [3]: 11.1 µM (active)

O=c1c2ccccc2nc2n1C(CSCc1ccc(Cl)cc1Cl)CS2 (centres undefined)
AC50 [4]: 1.45 µM (active)
AC50 [5]: 3.48 µM (active)
AC50 [6]: 46.2 µM (active)

C=CCc1cccc(/C=N/NC(=O)c2ccc3[nH]cnc3c2)c1O
AC50 (INS1): 1.61 µM (active)
AC50 [7]: 3.81 µM (active)
EC50 (cells [8]): 44.5 µM (active)
EC50 (cells [9]): 11.8 µM (active)

Cc1onc(-c2ccccc2)c1-c1nc2cc(Cl)ccc2c(=O)o1
EC50 (Protein RecA): 158 µM (active)
AC50 [3]: 1.53 µM (active)

O=C(CSc1cccc2cccnc12)N/N=C/c1ccc(O)cc1
IC50 (Large T antigen): 11.6 µM (active)

CCc1ccc(NC(=O)C(=O)N/N=C(\C)CC(=O)Nc2ccccn2)cc1
EC50 (Protein RecA): > 380 µM (inactive)
AC50 [3]: > 380 µM (inactive)

CC(=O)c1ccc(N2CCN(c3ccc(S(=O)(=O)NCCCN(C)C)cc3[N+](=O)[O-])CC2)cc1
AC50 [4]: 3.78 µM (active)
AC50 [7]: 1.41 µM (active)
AC50 [5]: 36.7 µM (active)
AC50 [6]: 27.3 µM (active)

O=Cc1coc2c(ccc3ccccc32)c1=O
IC50 (Large T antigen): 9.01 µM (active)

Cc1n[nH]c(S/C(=C/c2ccc(-c3cccc(Cl)c3)o2)C(=O)O)n1
EC50 [1]: > 300 µM (not active)
EC50 [2]: 69.5 µM (active)

O=C(O)[C@H]1CCCC[C@H]1C(=O)Nc1ccc(Nc2ccccc2)cc1
IC50 (Large T antigen): 9.46 µM (active)

O=C1c2ccccc2NC2(CCCCC2)N1c1ccc(O)cc1
IC50 (Large T antigen): 12.5 µM (active)

CNc1c(N)n(Cc2ccccc2)c(=O)[nH]c1=O
EC50 [1]: > 300 µM (not active)
EC50 [2]: 92.1 µM (inconclusive)

Clc1cccc(CSc2nc3cc[nH]cc-3n2)c1
EC50 [1]: > 300 µM (not active)
EC50 [2]: > 300 µM (not active)

CC(C)(C)OC(=O)NCCCCC1=CC2=CC(=O)C(C)(OC(=O)c3ccco3)C(=O)C2=CO1 (centres undefined)
EC50 [1]: 35.5 µM (active)
EC50 [2]: 30.3 µM (active)

NC(=Nc1ccc(N)cc1)C(N)=Nc1ccc(N)cc1
EC50 [1]: > 300 µM (not active)
EC50 [2]: 42.8 µM (active)

CC(C)NC(=N)NC(=N)Nc1ccc(Cl)cc1 [PROGUANIL HYDROCHLORIDE]
AC50 [4]: 0.37 µM (active)
AC50 [5]: 0.403 µM (active)

COc1ccc(/C=N/NC(=O)c2ccoc2C)cc1O
CC50 [10]: 18.5 µM (active)
EC50 (cells [8]): 6.49 µM (active)
IC50 (Large T antigen): 9.6 µM (active)
AC50 [11]: 1.2 µM (active)
EC50 (cells [9]): > 350 µM (not active)

Cc1cc2c(c3oc(C4(C)OC4C4OC4C)cc(=O)c13)C(=O)c1c(O)c(C3CC(C)(N(C)C)C(O)C(C)O3)cc(C3CC(N(C)C)C(O)C(C)O3)c1C2=O (centres undefined)
GI50 (P388/ADR): 0.0025 µM (active)

CCOc1ccc(CN(C)c2ccc(S(=O)(=O)N3CCN(C)CC3)cc2[N+](=O)[O-])cc1OC
AC50 [4]: 3.38 µM (active)
AC50 [5]: 5.91 µM (active)
AC50 [6]: 43 µM (active)

O=C(/C=C/c1cn(-c2ccccc2)nc1-c1ccccc1)Nc1ccc(C(=O)O)cc1
EC50 [12]: 6.15 µM (active)
EC50 (cells [8]): 24.8 µM (active)
EC50 (Streptococcus): 15.5 µM (active)
EC50 (cells [9]): > 350 µM (not active)
EC50 (Streptokinase A): > 150 µM (not active)

N=c1c(C(=O)NC2CCCCC2)cc2c(=O)n3ccccc3nc2n1CCc1ccccc1
EC50 [1]: 15.2 µM (active)
EC50 [2]: 16.1 µM (active)

Nc1cnc(Nc2ccc(Br)cc2)nc1N
IC50 (Large T antigen): 22.3 µM (active)

Cc1ccc2[nH]c3c(c2c1)CN(C(=O)CN1CCN(C(=O)c2ccco2)CC1)CC3
EC50 [1]: 112 µM (active)
EC50 [2]: 68 µM (active)

Cc1cc(O)cc2c1C(=O)/C(=C/c1ccco1)O2
EC50 [1]: 15.8 µM (active)
EC50 [2]: > 300 µM (not active)
